Test results from publication PMC7660650, “Chemical Starting Matter for HNF4α Ligand Discovery and Chemogenomics” (International Journal of Molecular Sciences, 2020).
“And” between values parts separate entries of the source, which are not always exact repeats. Equal values may be shown once. “Also recorded” adds a separate entry of the source. Read-outs that look alike come from different tables or passages of the source.

Tests used:
[1] = target: T1, Gal4-HNF4α (human HNF4α LBD) (Homo sapiens, UniProt P41235); assay: Hybrid Gal4-HNF4α reporter gene assay in transiently transfected HEK293T cells; type: cell-based; settings: for HNF4a-screening_activity_(mean_of_n=2): Table S1, primary screening; for Primary Screen (Fold Act., 50 µM): mean of two biologically independent repeats, vs. 0.2% DMSO
T1 construct: uniprot entry: P41235-1, residues 142-377; expressed in transfected cells; host or cells: HEK293T
T1 sequence (P41235 142-377): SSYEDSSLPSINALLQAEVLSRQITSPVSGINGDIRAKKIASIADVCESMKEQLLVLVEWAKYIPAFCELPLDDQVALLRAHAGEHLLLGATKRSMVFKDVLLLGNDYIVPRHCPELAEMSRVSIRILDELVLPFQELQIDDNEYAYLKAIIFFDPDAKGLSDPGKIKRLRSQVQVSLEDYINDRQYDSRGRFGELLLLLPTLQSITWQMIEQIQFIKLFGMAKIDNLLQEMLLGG

Gal4–VP16 = assay: Gal4-VP16 control experiment (reporter gene assay, HEK293T cells); type: cell-based; settings: mean ± SD
Method: The frame and sequence of the fusion plasmid were verified by sequencing. pFR-Luc (Stratagene) was used as reporter plasmid and pRL-SV40 (Promega, Madison, WI, USA) served for normalization of transfection efficiency and cell growth. The Gal4-VP16 [25] expressed from plasmid pECE-SV40-Gal4-VP16 [26] […] Assay Procedure: HEK293T cells were grown in Dulbecco’s Modified Eagle Medium (DMEM) high glucose, supplemented with 10% Fetal Bovine Serum (FCS), sodium pyruvate (1 mM), penicillin (100 U/mL), and streptomycin (100 μg/mL) at 37 °C and 5% CO2. The day before transfection, HEK293T cells were seeded in 96-well plates (3.0·10^4 cells/well). Before transfection, the medium was changed to Opti-MEM without supplements. Transient transfection was carried out using Lipofectamine LTX reagent (Invitrogen, Carlsbad, CA, USA) according to the manufacturer’s protocol with pFR-Luc (Stratagene), pRL-SV40 (Promega), and the pFA-CMV-hHNF4α-LBD clone or pECE-SV40-Gal4-VP16 for control experiments. Five hours after transfection, the medium was changed to Opti-MEM supplemented with penicillin (100 U/mL), streptomycin (100 μg/mL), now additionally containing 0.1% DMSO (0.2% in the primary screen) and the respective test compounds or 0.1% DMSO (0.2% in the primary screen) alone as the untreated control. In the primary screening, the core set of the Prestwick Drug Fragment Library (Prestwick Chemical, Illkirch, France) was tested at 50 µM concentration in two biologically independent repeats. In the follow-up and dose-response profiling, each concentration was tested in duplicates in at least three biologically independent repeats. Following overnight (12−14 h) incubation with the test compounds, cells were assayed for luciferase activity using Dual-Glo™ luciferase assay system (Promega) according to the manufacturer’s protocol. Luminescence was measured with a Tecan Spark 10M luminometer (Tecan Group Ltd., Männedorf, Switzerland). […] Fold activation was obtained by dividing the mean RLU of test compounds at a respective concentration by the mean RLU of untreated control.

[2] = system: HNF4α-regulated gene fructose-1,6-bisphosphatase 1 (FBP1); assay: FBP1 mRNA expression in HepG2 cells by qRT-PCR; type: cell-based, human; settings: 8 h, vs 0.1% DMSO
[3] = 50 µM, mean ± SD, at least four repeats
[4] = 100 µM, mean ± SD, at least four repeats

NC1CCC(=O)NC1=O (centres unmarked) [Prestw-Frag-3716, NC1CCC(=O)NC1=O]
HNF4a-screening_activity_(mean_of_n=2) ([1]; 50 µM): 1.139

CC(O)(C(=O)O)c1ccccc1 (centres unmarked) [Prestw-Frag-3717, CC(O)(C(O)=O)c1ccccc1]
HNF4a-screening_activity_(mean_of_n=2) ([1]; 50 µM): 1.037

O=C1CNCN1 [Prestw-Frag-3718, O=C1CNCN1]
HNF4a-screening_activity_(mean_of_n=2) ([1]; 50 µM): 1.053

c1cncc(CN2CCNCC2)c1 [Prestw-Frag-3722, C(N1CCNCC1)c1cccnc1]
HNF4a-screening_activity_(mean_of_n=2) ([1]; 50 µM): 0.9979

NC(=O)N1CCNCC1 [Prestw-Frag-3723, NC(=O)N1CCNCC1]
HNF4a-screening_activity_(mean_of_n=2) ([1]; 50 µM): 1.067

Cc1n[nH]c(C)c1N [Prestw-Frag-3724, Cc1n[nH]c(C)c1N]
HNF4a-screening_activity_(mean_of_n=2) ([1]; 50 µM): 0.9198

FC(F)(F)c1cc[nH]n1 [Prestw-Frag-3726, FC(F)(F)c1cc[nH]n1]
HNF4a-screening_activity_(mean_of_n=2) ([1]; 50 µM): 0.9056

OCC1CCNCC1 [Prestw-Frag-3727, OCC1CCNCC1]
HNF4a-screening_activity_(mean_of_n=2) ([1]; 50 µM): 0.8559

OCC1CCCNC1 (centres unmarked) [Prestw-Frag-3728, OCC1CCCNC1]
HNF4a-screening_activity_(mean_of_n=2) ([1]; 50 µM): 1.103

c1cc(N2CCNCC2)ncn1 [Prestw-Frag-3729, C1CN(CCN1)c1ccncn1]
HNF4a-screening_activity_(mean_of_n=2) ([1]; 50 µM): 1.017

N#CCC(=O)N1CCCCC1 [Prestw-Frag-3730, O=C(CC#N)N1CCCCC1]
HNF4a-screening_activity_(mean_of_n=2) ([1]; 50 µM): 0.9277

CCN(CC)C(=O)CC#N [Prestw-Frag-3731, CCN(CC)C(=O)CC#N]
HNF4a-screening_activity_(mean_of_n=2) ([1]; 50 µM): 0.9542

c1ccc2c(c1)NCCO2 [Prestw-Frag-3732, C1COc2ccccc2N1]
HNF4a-screening_activity_(mean_of_n=2) ([1]; 50 µM): 1.144

CC(C)(CN)c1ccccc1 [Prestw-Frag-3733, CC(C)(CN)c1ccccc1]
HNF4a-screening_activity_(mean_of_n=2) ([1]; 50 µM): 1.132

O=c1[nH]cncc1-c1ccccc1 [Prestw-Frag-3734, O=c1[nH]cncc1-c1ccccc1]
HNF4a-screening_activity_(mean_of_n=2) ([1]; 50 µM): 1.236

Oc1ccccc1N1CCNCC1 [Prestw-Frag-3738, Oc1ccccc1N1CCNCC1]
HNF4a-screening_activity_(mean_of_n=2) ([1]; 50 µM): 0.9708

COc1ccc2c(c1)CCC(C(=O)O)C2 (centres unmarked) [Prestw-Frag-3739, COc1ccc2CC(CCc2c1)C(O)=O]
HNF4a-screening_activity_(mean_of_n=2) ([1]; 50 µM): 0.6963

Cn1c(N)nc2ccccc21 [Prestw-Frag-3740, Cn1c(N)nc2ccccc12]
HNF4a-screening_activity_(mean_of_n=2) ([1]; 50 µM): 1.19

OCc1ccc2c(c1)OCO2 [Prestw-Frag-3741, OCc1ccc2OCOc2c1]
HNF4a-screening_activity_(mean_of_n=2) ([1]; 50 µM): 1.114

Cc1cc(=O)n(-c2ccccc2)[nH]1 [Prestw-Frag-3742, Cc1cc(=O)n([nH]1)-c1ccccc1]
HNF4a-screening_activity_(mean_of_n=2) ([1]; 50 µM): 0.8727

Cc1nc(-c2ccccc2)cs1 [Prestw-Frag-3743, Cc1nc(cs1)-c1ccccc1]
HNF4a-screening_activity_(mean_of_n=2) ([1]; 50 µM): 1.125

c1ccc(-n2ccnc2)cc1 [Prestw-Frag-3744, c1cn(cn1)-c1ccccc1]
HNF4a-screening_activity_(mean_of_n=2) ([1]; 50 µM): 1.014

Cc1nc(-c2ccccc2F)cs1 [Prestw-Frag-3745, Cc1nc(cs1)-c1ccccc1F]
HNF4a-screening_activity_(mean_of_n=2) ([1]; 50 µM): 1.103

NCCc1ccc(F)cc1F [Prestw-Frag-3746, NCCc1ccc(F)cc1F]
HNF4a-screening_activity_(mean_of_n=2) ([1]; 50 µM): 1.162

NCc1cscn1 [Prestw-Frag-3747, NCc1cscn1]
HNF4a-screening_activity_(mean_of_n=2) ([1]; 50 µM): 0.9617

NCCOCc1ccccc1 [Prestw-Frag-3749, NCCOCc1ccccc1]
HNF4a-screening_activity_(mean_of_n=2) ([1]; 50 µM): 0.8708

c1ccc2c(c1)CCNCC2 [Prestw-Frag-3750, C1Cc2ccccc2CCN1]
HNF4a-screening_activity_(mean_of_n=2) ([1]; 50 µM): 1.099

NCC1(c2ccccc2)CC1 [Prestw-Frag-3751, NCC1(CC1)c1ccccc1]
HNF4a-screening_activity_(mean_of_n=2) ([1]; 50 µM): 0.9761

Cc1[nH]cnc1CO [Prestw-Frag-3752, Cc1[nH]cnc1CO]
HNF4a-screening_activity_(mean_of_n=2) ([1]; 50 µM): 1.105

c1nc(C2CCNCC2)c[nH]1 [Prestw-Frag-3753, C1CC(CCN1)c1c[nH]cn1]
HNF4a-screening_activity_(mean_of_n=2) ([1]; 50 µM): 0.9547

CNC(=O)c1cc(Cl)c(N)cc1OC [Prestw-Frag-3754, CNC(=O)c1cc(Cl)c(N)cc1OC]
HNF4a-screening_activity_(mean_of_n=2) ([1]; 50 µM): 1.064

CC(CO)Nc1ccccc1 (centres unmarked) [Prestw-Frag-3755, CC(CO)Nc1ccccc1]
HNF4a-screening_activity_(mean_of_n=2) ([1]; 50 µM): 0.8925

CC(=O)C1CCNCC1 [Prestw-Frag-3756, CC(=O)C1CCNCC1]
HNF4a-screening_activity_(mean_of_n=2) ([1]; 50 µM): 0.9377

CC1CCC(=O)O1 (centres unmarked) [Prestw-Frag-3757, CC1CCC(=O)O1]
HNF4a-screening_activity_(mean_of_n=2) ([1]; 50 µM): 1.285

c1ccc(-n2cccn2)cc1 [Prestw-Frag-3759, c1cnn(c1)-c1ccccc1]
HNF4a-screening_activity_(mean_of_n=2) ([1]; 50 µM): 1.212

Cc1cc(C(C)(C)CC(C)(C)C)ccc1O [compound 1, Cc1cc(ccc1O)C(C)(C)CC(C)(C)C]
Primary Screen (Fold Act., 50 µM) ([1]; 50 µM): 2.48 fold activation | Follow-up HNF4α (fold activation of reporter activity) [1, 3]: 1.1 ± 0.2 (50 µM) fold activation | HNF4a-screening_activity_(mean_of_n=2) ([1]; 50 µM, listed as Prestw-Frag-1016): 2.483 and 1.264 | VP16 Control (fold activation of reporter activity) (Gal4–VP16; 50 µM): 0.80 ± 0.07 (50 µM) fold activation

COc1ccc2c(c1)OCC2=O [compound 2, COc1ccc2C(=O)COc2c1]
Primary Screen (Fold Act., 50 µM) ([1]; 50 µM): 1.55 fold activation | Follow-up HNF4α (fold activation of reporter activity) [1, 3]: 1.3 ± 0.2 (50 µM) fold activation | HNF4a-screening_activity_(mean_of_n=2) ([1]; 50 µM, listed as Prestw-Frag-1362): 0.8621 and 1.554 | VP16 Control (fold activation of reporter activity) (Gal4–VP16; 50 µM): 1.3 ± 0.3 (50 µM) fold activation

Nc1nc2cc(C(=O)c3ccccc3)ccc2[nH]1 [compound 3]
Primary Screen (Fold Act., 50 µM) ([1]; 50 µM): 2.09 fold activation | Follow-up HNF4α (fold activation of reporter activity) [1, 3]: 1.5 ± 0.2 (50 µM) fold activation | VP16 Control (fold activation of reporter activity) (Gal4–VP16; 50 µM): 1.7 ± 0.3 (50 µM) fold activation

O=C(Nc1ccccc1Cl)c1ccccc1O [compound 4, Oc1ccccc1C(=O)Nc1ccccc1Cl]
FBP1 mRNA expression ([2]; HepG2, 50 µM): promoted FBP1 expression; also recorded: tendency to enhanced FBP1 mRNA levels

CC(C)CC(N)C1(c2ccc(Cl)cc2)CCC1 (centres unmarked) [compound 5, CC(C)CC(N)C1(CCC1)c1ccc(Cl)cc1]
Primary Screen (Fold Act., 50 µM) ([1]; 50 µM): 1.80 fold activation | Follow-up HNF4α (fold activation of reporter activity) [1, 3]: tendency for HNF4α modulation | Follow-up HNF4α (fold activation of reporter activity) [1, 4]: 2.5 ± 0.2 (100 µM) fold activation | HNF4α Ligand Type ([1]; Gal4-HNF4α assay): Agonist | HNF4a-screening_activity_(mean_of_n=2) ([1]; 50 µM, listed as Prestw-Frag-1566): 0.9114 and 1.797 | EC50 ([1]; dose-response, mean ± SD, at least four repeats, read-out: Validated HNF4α Modulation EC50): > 100 µM | HNF4α vs. VP16 (p, t-test) ([1]; significance of Gal4-HNF4α follow-up vs Gal4-VP16 control at the same concentration): p < 0.0001 (***) | VP16 Control (fold activation of reporter activity) (Gal4–VP16; 100 µM): 1.1 ± 0.1 (100 µM) fold activation

Nc1ncn([C@@H]2O[C@H](CO)[C@@H](O)[C@H]2O)c(=O)n1 [compound 6, Nc1ncn([C@@H]2O[C@H](CO)[C@@H](O)[C@H]2O)c(=O)n1]
HNF4α vs. VP16 (p, t-test) [1]: p = 0.0034 (**) | FBP1 mRNA expression ([2]; HepG2, 10 µM): significantly promoted FBP1 expression

Cc1nc(-c2ccccc2)c(-c2ccccc2)o1 [compound 8]
Follow-up HNF4α (fold activation of reporter activity) [1, 3]: 1.1 ± 0.2 (50 µM) fold activation | VP16 Control (fold activation of reporter activity) (Gal4–VP16; 50 µM): 0.92 ± 0.07 (50 µM) fold activation

O=C(O)c1cc(-c2ccccc2)ccc1O [compound 9, OC(=O)c1cc(ccc1O)-c1ccccc1]
FBP1 mRNA expression ([2]; HepG2, 50 µM): decreased FBP1 mRNA levels; also recorded: robustly decreased FBP1 expression

Cc1cc(=O)n(-c2ccc(C)c(C)c2)[nH]1 [compound 11, Cc1cc(=O)n([nH]1)-c1ccc(C)c(C)c1]
Primary Screen (Fold Act., 50 µM) ([1]; 50 µM): 0.32 fold activation | Follow-up HNF4α (fold activation of reporter activity) [1, 3]: tendency for HNF4α modulation | Follow-up HNF4α (fold activation of reporter activity) [1, 4]: 0.21 ± 0.03 (100 µM) fold activation | HNF4a-screening_activity_(mean_of_n=2) ([1]; 50 µM): 0.3184 | VP16 Control (fold activation of reporter activity) (Gal4–VP16; 100 µM): 0.21 ± 0.02 (100 µM) fold activation
